These results are taken from ChEMBL document CHEMBL3991601, “The target landscape of clinical kinase drugs” (Science, 2017).

pKd: −log10 of the molar value. Calls of active or inactive are those of the source. On the calls: in the data inactive means no Kd found up to 30 µM. A value given as a limit tells only on which side of the number the result lay.

The target of assay [1] is Choline-phosphate cytidylyltransferase A (Homo sapiens, UniProt P49585).
The target of assay [2] is Serine/threonine-protein kinase PLK1 (Homo sapiens, UniProt P53350).
The target of assay [3] is Serine/threonine-protein kinase 38-like (Homo sapiens, UniProt Q9Y2H1).
Assay [4] has as its target Uncharacterized aarF domain-containing protein kinase 5 (Homo sapiens, UniProt Q3MIX3).
Assay [5] addresses T1, Protein kinase C zeta type (Homo sapiens, UniProt Q05513).
T1 sequence (Q05513 whole entry): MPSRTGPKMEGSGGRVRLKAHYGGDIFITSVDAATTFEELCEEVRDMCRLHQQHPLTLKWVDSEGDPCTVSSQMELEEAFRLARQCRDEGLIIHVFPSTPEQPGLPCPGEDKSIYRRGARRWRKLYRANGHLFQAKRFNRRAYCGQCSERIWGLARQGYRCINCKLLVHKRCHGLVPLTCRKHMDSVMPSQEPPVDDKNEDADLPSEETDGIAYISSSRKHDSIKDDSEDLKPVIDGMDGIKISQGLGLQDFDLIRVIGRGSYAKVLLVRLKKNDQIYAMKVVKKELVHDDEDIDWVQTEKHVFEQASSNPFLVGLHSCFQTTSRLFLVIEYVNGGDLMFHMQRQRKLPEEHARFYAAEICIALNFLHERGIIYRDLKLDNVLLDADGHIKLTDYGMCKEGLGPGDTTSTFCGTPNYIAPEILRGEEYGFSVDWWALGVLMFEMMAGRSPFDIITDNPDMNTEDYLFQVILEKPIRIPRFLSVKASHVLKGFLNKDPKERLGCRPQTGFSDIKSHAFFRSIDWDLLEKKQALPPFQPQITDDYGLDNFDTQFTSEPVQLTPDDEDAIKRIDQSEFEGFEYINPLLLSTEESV

Assay [6] addresses T2, Tyrosine-protein kinase Mer (Homo sapiens, UniProt Q12866).
T2 sequence (Q12866 whole entry): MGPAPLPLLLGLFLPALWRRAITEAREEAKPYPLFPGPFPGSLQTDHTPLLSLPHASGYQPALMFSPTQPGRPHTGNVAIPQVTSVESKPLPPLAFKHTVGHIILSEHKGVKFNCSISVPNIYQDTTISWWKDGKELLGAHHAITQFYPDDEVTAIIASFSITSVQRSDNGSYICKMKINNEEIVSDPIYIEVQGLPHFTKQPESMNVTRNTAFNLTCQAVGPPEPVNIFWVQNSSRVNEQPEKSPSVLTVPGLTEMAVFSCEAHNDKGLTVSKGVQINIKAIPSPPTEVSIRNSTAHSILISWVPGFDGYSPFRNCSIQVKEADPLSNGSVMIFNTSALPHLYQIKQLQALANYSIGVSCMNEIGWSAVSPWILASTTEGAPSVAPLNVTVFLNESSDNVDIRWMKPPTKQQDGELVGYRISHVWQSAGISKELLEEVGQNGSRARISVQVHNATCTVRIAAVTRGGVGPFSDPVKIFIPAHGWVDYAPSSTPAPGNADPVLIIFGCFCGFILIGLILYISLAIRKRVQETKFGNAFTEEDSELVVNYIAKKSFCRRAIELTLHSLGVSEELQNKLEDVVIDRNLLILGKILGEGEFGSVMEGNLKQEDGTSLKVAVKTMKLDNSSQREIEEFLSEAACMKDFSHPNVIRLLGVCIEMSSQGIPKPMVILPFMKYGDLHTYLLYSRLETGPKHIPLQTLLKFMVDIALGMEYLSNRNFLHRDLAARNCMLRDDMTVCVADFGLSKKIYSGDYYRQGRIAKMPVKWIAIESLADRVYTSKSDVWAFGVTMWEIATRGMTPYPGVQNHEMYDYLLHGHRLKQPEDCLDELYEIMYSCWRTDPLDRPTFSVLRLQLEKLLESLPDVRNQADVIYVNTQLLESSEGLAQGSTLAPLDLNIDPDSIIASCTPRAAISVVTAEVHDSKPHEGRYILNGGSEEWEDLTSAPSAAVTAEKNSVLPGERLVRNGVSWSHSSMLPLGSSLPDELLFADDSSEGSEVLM

The target of assay [7] is Dual specificity testis-specific protein kinase 2 (Homo sapiens, UniProt Q96S53).
In a further assay the target is Misshapen-like kinase 1 (Homo sapiens, UniProt Q8N4C8).
The next assay addresses T3, UMP-CMP kinase (Homo sapiens, UniProt P30085).
T3 sequence (P30085 whole entry): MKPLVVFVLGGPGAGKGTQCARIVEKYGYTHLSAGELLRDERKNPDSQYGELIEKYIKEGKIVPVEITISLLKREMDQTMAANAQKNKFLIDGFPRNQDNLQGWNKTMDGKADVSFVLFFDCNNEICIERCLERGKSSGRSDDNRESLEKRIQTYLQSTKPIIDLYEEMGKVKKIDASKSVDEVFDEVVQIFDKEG

The target of assay [8] is Dual specificity protein kinase CLK3 (Homo sapiens, UniProt P49761). In kind it is subcellular, K-562, COLO 205, SK-N-BE(2) and MV-4-11, Cell lysate. Particulars: read-out: Kd apparent.
Sequence of Dual specificity protein kinase CLK3 (P49761 whole entry): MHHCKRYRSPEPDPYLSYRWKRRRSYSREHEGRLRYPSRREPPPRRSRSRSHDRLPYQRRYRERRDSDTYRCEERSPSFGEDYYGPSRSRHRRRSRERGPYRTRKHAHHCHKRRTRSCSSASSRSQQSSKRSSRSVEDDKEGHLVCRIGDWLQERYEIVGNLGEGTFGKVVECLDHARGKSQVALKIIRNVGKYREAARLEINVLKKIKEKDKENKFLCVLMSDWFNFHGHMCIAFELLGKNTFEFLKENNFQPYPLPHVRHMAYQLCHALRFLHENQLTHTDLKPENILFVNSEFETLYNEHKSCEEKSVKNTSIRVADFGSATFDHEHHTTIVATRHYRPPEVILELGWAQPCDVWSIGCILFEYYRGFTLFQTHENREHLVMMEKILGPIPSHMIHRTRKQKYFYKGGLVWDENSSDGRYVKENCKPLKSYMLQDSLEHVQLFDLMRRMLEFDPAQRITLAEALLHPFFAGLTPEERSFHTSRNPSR

Sequence of Misshapen-like kinase 1 (Q8N4C8 whole entry): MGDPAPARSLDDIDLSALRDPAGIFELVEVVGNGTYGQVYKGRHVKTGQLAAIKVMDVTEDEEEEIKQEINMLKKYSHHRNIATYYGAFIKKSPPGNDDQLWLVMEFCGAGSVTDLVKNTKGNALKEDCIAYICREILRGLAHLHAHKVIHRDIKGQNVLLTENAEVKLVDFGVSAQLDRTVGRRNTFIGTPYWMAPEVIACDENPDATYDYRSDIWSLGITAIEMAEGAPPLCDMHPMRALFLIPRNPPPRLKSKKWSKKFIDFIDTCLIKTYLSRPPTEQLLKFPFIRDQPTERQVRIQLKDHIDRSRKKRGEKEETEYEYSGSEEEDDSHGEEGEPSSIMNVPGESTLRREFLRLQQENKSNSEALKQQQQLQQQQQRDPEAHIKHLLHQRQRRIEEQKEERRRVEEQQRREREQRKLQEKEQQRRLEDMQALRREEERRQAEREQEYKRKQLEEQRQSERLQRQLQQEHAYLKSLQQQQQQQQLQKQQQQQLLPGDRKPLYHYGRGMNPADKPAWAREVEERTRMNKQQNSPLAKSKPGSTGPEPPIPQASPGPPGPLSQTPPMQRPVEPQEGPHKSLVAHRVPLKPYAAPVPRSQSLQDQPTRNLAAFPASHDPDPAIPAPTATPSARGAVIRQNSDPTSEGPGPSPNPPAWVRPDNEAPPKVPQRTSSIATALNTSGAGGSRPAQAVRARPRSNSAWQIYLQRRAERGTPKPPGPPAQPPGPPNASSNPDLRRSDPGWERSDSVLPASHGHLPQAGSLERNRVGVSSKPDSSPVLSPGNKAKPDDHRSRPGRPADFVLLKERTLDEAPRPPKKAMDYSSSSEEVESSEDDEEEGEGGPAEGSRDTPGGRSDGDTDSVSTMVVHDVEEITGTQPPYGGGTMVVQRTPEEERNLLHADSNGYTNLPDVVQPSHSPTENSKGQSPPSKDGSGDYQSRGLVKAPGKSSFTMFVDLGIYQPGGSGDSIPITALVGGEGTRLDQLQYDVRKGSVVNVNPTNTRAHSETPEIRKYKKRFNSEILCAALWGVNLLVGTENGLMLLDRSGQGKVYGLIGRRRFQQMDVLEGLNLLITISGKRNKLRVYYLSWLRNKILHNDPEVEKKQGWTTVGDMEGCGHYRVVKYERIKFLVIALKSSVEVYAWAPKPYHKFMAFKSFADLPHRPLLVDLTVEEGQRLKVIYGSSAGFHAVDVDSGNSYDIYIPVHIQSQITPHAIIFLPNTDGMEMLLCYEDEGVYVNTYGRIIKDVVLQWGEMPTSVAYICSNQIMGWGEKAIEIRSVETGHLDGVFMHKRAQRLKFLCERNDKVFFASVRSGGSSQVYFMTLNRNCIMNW
Sequence of Serine/threonine-protein kinase 38-like (Q9Y2H1 whole entry, the tested form may be a part): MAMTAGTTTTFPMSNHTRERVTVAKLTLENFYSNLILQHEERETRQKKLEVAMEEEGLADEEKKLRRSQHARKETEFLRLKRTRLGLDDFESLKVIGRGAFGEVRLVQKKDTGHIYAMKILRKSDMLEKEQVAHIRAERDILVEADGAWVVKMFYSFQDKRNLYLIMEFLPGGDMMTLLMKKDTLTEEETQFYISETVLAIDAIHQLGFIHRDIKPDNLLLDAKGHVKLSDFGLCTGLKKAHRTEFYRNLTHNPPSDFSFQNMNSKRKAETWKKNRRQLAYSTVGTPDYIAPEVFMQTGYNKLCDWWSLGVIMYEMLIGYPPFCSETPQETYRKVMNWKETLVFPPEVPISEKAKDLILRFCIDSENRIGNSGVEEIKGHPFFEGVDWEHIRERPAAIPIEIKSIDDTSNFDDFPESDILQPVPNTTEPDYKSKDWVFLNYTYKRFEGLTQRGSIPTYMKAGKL
Sequence of Choline-phosphate cytidylyltransferase A (P49585 whole entry): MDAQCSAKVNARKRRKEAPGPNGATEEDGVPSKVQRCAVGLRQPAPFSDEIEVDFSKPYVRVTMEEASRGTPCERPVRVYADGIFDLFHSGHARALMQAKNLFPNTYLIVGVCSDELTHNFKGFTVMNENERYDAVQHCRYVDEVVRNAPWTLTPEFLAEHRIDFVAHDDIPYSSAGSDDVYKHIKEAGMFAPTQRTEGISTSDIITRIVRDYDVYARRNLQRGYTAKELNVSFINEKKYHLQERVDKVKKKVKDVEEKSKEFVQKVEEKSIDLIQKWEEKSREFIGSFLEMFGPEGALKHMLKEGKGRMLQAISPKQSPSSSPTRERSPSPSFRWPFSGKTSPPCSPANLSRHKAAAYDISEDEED
Sequence of Dual specificity testis-specific protein kinase 2 (Q96S53 whole entry): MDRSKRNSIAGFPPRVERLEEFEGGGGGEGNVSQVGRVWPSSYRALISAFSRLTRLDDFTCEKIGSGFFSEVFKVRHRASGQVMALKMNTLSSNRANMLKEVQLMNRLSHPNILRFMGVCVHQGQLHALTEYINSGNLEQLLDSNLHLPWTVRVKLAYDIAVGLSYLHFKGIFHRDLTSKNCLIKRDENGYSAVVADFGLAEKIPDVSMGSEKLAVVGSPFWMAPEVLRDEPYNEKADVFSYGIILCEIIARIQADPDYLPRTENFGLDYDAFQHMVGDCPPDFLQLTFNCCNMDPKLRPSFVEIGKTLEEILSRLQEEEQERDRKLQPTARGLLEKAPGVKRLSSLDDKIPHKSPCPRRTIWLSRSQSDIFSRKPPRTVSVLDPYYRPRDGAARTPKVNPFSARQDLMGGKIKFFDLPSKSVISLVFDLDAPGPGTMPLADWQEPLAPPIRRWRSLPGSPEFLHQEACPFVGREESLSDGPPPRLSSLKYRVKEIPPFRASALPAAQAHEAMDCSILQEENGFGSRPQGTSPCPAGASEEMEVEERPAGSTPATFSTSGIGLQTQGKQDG
Sequence of Uncharacterized aarF domain-containing protein kinase 5 (Q3MIX3 whole entry, the tested form may be a part): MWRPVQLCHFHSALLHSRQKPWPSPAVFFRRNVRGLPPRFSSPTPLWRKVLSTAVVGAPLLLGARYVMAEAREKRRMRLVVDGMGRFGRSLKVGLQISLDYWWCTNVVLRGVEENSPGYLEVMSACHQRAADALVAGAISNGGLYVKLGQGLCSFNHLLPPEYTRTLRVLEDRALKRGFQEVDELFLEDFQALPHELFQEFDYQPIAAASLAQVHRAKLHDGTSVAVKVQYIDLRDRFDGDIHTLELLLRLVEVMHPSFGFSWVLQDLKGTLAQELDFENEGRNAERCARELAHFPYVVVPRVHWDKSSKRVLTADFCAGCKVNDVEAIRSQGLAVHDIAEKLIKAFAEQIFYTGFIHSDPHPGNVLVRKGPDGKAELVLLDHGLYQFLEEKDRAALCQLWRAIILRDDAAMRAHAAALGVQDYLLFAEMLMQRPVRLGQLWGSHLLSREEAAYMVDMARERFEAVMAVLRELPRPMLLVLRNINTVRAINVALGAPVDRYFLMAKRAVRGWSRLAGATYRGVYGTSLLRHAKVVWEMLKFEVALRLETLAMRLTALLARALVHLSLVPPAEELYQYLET
Sequence of Serine/threonine-protein kinase PLK1 (P53350 whole entry): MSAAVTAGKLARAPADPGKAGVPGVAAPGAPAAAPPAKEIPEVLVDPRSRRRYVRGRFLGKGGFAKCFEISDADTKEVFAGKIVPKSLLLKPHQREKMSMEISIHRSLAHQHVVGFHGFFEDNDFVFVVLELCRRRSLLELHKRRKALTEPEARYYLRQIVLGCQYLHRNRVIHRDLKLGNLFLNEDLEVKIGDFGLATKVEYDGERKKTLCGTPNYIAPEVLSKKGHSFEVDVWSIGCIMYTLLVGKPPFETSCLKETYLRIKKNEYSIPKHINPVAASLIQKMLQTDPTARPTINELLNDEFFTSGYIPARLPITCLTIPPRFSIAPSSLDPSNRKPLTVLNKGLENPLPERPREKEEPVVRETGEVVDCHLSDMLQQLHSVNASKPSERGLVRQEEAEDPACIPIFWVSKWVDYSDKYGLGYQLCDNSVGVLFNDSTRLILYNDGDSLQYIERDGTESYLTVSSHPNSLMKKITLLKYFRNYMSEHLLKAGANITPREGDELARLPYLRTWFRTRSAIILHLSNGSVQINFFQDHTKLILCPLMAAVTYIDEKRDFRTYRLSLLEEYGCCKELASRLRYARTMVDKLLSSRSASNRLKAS

A word on the pKd: it is the Kd on a negative log10 scale, so that one unit is a factor of ten. Read a low pKd as a large Kd. Consider `Cc1nc2cc(-c3nn(C(C)C)c4ncnc(N)c34)ccc2o1`, for which the Kd in [1], in [2], in [3], in assay [4], in [5] and in assay [6] was > 30 µM (inactive) each time. For the same molecule, the pKd in assay [7] was 7.74.

On to `Nc1ncnc2c1c(-c1cccc(OCc3ccccc3)c1)cn2[C@H]1C[C@@H](CN2CCC2)C1` [AEW-541], for which the Kd (in [2]; in assay [3]; on Misshapen-like kinase 1; in assay [6]) was > 30 µM (inactive) each time.

With `Cn1cnc2c(F)c(Nc3ccc(Br)cc3F)c(C(=O)NOCCO)cc21` [BINIMETINIB], the Kd (in [1]; in assay [2]; in assay [3]; in assay [4]; in assay [6]; on UMP-CMP kinase) was > 30 µM (inactive) each time.

With `Cc1cc(Nc2ncc(Cl)c(Nc3ccccc3S(=O)(=O)C(C)C)n2)c(OC(C)C)cc1C1CCNCC1` [CERITINIB], the Kd (in assay [2]; in assay [3]; in assay [4]; on Misshapen-like kinase 1; in [5]; in assay [6]) was > 30 µM (inactive) throughout.

`COc1c(OCCCN2CCOCC2)ccc2c1N=C(NC(=O)c1cnc(N)nc1)N1CCN=C21` [COPANLISIB]: the Kd (in [8]; in assay [2]; in assay [3]; in assay [4]; at Misshapen-like kinase 1; in assay [6]) was > 30 µM (inactive) throughout.

Take `COCC(=O)NC/C=C/c1ccc2ncnc(Nc3ccc(Oc4ccc(C)nc4)c(C)c3)c2c1` [CP-724714]: the Kd in [1], in assay [2], in assay [3], in assay [4], in assay [5] and in [6] was > 30 µM (inactive) throughout. In assay [7], the Kd was > 30 µM (inactive).

Take `O=C(Nc1nc2cccc(-c3ccc(CN4CCS(=O)(=O)CC4)cc3)n2n1)C1CC1` [FILGOTINIB]: the Kd (in assay [1]; in assay [2]; in assay [3]; in assay [4]; on Misshapen-like kinase 1; on UMP-CMP kinase) was > 30 µM (inactive) throughout.

Consider `O=C(Nc1cc(C(F)(F)F)cc(C(F)(F)F)c1)c1cc(Cl)ccc1O` [IMD-0354], for which the Kd (in assay [8]; in assay [1]; in assay [3]; in assay [4]; at Misshapen-like kinase 1; in assay [6]) was > 30 µM (inactive) each time.

Consider `CNC(=O)c1nn(C)c2c1C(C)(C)Cc1cnc(Nc3ccc(N4CCN(C)CC4)cc3)nc1-2` [MILCICLIB], for which the Kd (in [8]; in assay [1]; in assay [3]; in [4]; on Misshapen-like kinase 1; in [5]) was > 30 µM (inactive) in each case. Besides, the Kd in assay [6] and in [7] was > 30 µM (inactive) each time.

For the molecule `FC(F)(F)c1ccc(/C=C/c2nc(COc3ccc(CCCCn4ccnn4)cc3)co2)cc1` [MUBRITINIB], the Kd in assay [2] was > 30 µM (inactive); in assay [3], > 30 µM (inactive); in assay [4] it was > 30 µM (inactive); on Misshapen-like kinase 1 it was 1.77 µM (active); in assay [6], > 30 µM (inactive); in assay [7] it was > 30 µM (inactive).

In the case of `CCOc1cc2ncc(C#N)c(Nc3ccc(F)c(Cl)c3)c2cc1NC(=O)/C=C/CN(C)C` [PELITINIB], the Kd (in assay [2]; in [3]; in assay [4]; at Misshapen-like kinase 1; in assay [6]; at UMP-CMP kinase) was > 30 µM (inactive) throughout.

Regarding `CC(=O)NCC(=O)N1[C@@H]2CC[C@H]1c1ccc(Nc3ncc(C(F)(F)F)c(NC4CCC4)n3)cc12` [PF-03814735], the Kd in assay [8], in assay [1], in assay [3], in assay [6] and in assay [7] was > 30 µM (inactive) in each case.

As to `CO[C@H]1C[C@@H]2CC[C@@H](C)[C@@](O)(O2)C(=O)C(=O)N2CCCC[C@H]2C(=O)O[C@H]([C@H](C)C[C@@H]2CC[C@@H](OP(C)(C)=O)[C@H](OC)C2)CC(=O)[C@H](C)/C=C(\C)[C@@H](O)[C@@H](OC)C(=O)[C@H](C)C[C@H](C)/C=C/C=C/C=C/1C` [RIDAFOROLIMUS], the Kd in assay [8], in assay [3], in assay [4], in [5], in assay [6] and in assay [7] was > 30 µM (inactive) throughout.

As for `CCS(=O)(=O)c1cccc(-c2cc(C(=O)NC3CCN(C)CC3)c(C)c3[nH]c4ncc(C)cc4c23)c1` [TAK-901], the Kd in assay [3], in assay [5], in assay [6] and in [7] was > 30 µM (inactive) in each case.

For the molecule `O=C(Cc1ccc(-c2ccc(OCCN3CCOCC3)cc2)cn1)NCc1ccccc1` [TIRBANIBULIN], the Kd (in assay [8]; in assay [1]; in assay [2]; in [3]; in assay [4]; at Misshapen-like kinase 1) was > 30 µM (inactive) each time. Besides, the Kd (in assay [5]; on UMP-CMP kinase; in assay [7]) was > 30 µM (inactive) throughout.

As for `C[C@@H](NC(=O)c1ncnc(N)c1Cl)c1ncc(C(=O)Nc2cc(C(F)(F)F)c(Cl)cn2)s1` [TOVORAFENIB], the Kd (in assay [8]; in assay [1]; in assay [3]; in assay [4]; on Misshapen-like kinase 1; in assay [5]) was > 30 µM (inactive) each time. In addition, the Kd in [6] and in assay [7] was > 30 µM (inactive) each time.
